# Results reported in patent publication US9521847B2, “Synergistic weed control from applications of pyridine carboxylic acid herbicides and synthetic auxin herbicides and/or auxin transport inhibitors” (Dow AgroSciences LLC, priority 2014, dated 2016).
# Where two headings read alike, the source gives them in different places.
# Legend:
# [1] = tested on: pigweed (AMARE, Amaranthus retroflexus); experiment: Greenhouse postemergence trial, % visual injury; type: in vivo
# [2] = tested on: winter rape (BRSNW, Brassica napus); experiment: Greenhouse postemergence trial, % visual injury; type: in vivo
# [3] = tested on: common lambsquarters (CHEAL, Chenopodium album L.); experiment: Greenhouse postemergence trial, % visual injury; type: in vivo; details: Chenopodium album, post-emergence, read-out: % visual injury Obs
# [4] = tested on: kochia (KCHSC, Kochia scoparia); experiment: Greenhouse postemergence trial, % visual injury; type: in vivo
# Description: Following the protocol in Example 1, compound 1 and compound 2 were combined with 2,4 D EHE (EC) and applied to kochia (KCHSC, Kochia scoparia) and the phytotoxicity of the herbicidal compositions was measured.
# Following the protocol in Example 1, compound 1 (EC) and Compound 2 (SC) were combined with diflufenzopyr and applied to kochia (Kochia scoparia, KCHSC) and the phytotoxicity of the herbicidal composition was measured.
# [5] = tested on: velvetleaf (Abutilon theophrasti, ABUTH); experiment: Greenhouse postemergence trial, % visual injury; type: in vivo
# [6] = tested on: nutsedge (Cyperus esculentus, CYPES); experiment: Greenhouse postemergence trial, % visual injury; type: in vivo; details: CYPES, 70 g ae/ha
# [7] = tested on: sunflower (Helianthus annus, HELAN); experiment: Greenhouse postemergence trial, % visual injury; type: in vivo
# [8] = tested on: wild buckwheat (Polygonum convolvulus, POLCO); experiment: Greenhouse postemergence trial, % visual injury; type: in vivo
# [9] = tested on: Russian thistle (Salsola iberica, SASKR); experiment: Greenhouse postemergence trial, % visual injury; type: in vivo; details: fluroxypyr-MHE 70 g ae/ha
# [10] = tested on: wild mustard (Sinapis arvensis, SINAR); experiment: Greenhouse postemergence trial, % visual injury; type: in vivo; details: fluroxypyr-MHE 70 g ae/ha
# [11] = tested on: blackgrass (Alopecurus myosuroides, ALOMY); experiment: Greenhouse postemergence trial, % visual injury; type: in vivo; details: 70 g ae/ha
# [12] = tested on: wild oat (Avena fatua, VEFA); experiment: Greenhouse postemergence trial, % visual injury; type: in vivo; details: AVEFA
# [13] = tested on: large crabgrass (Digitaria sanguinalis, DIGSA); experiment: Greenhouse postemergence trial, % visual injury; type: in vivo; details: Digitaria sanguinalis, post-emergence, read-out: % visual injury, Obs
# [14] = tested on: barnyardgrass (Echinochloa crus-galli, ECHCG); experiment: Greenhouse postemergence trial, % visual injury; type: in vivo; details: fluroxypyr-MHE 100 g ae/ha
# [15] = tested on: kochia (KCHSC, Kochia scoparia); experiment: Greenhouse postemergence trial, % visual injury; type: in vivo; remark: listed apart in the source
# [16] = tested on: Canadian thistle (CIRAR, Cirsium arvense); experiment: Greenhouse postemergence trial, % visual injury; details: Cirsium arvense, post-emergence;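 further: plants sprayed at second to third true leaf stage, injury scored visually 20-22 d later against solvent-blank sprayed controls, 0 meaning no injury and 100 complete kill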
# [17] = tested on: spring rape (Brassica napus, BRSNN); experiment: Greenhouse postemergence trial, % visual injury; details: Brassica napus, post-emergence
# [18] = tested on: poinsettia (Euphorbia heterophylla, EPHHL); experiment: Greenhouse postemergence trial, % visual injury; details: Euphorbia heterophylla, post-emergence, read-out: % visual injury, Obs
# [19] = tested on: wild pansy (Viola tricolor, VIOTR); experiment: Greenhouse postemergence trial, % visual injury; details: for % visual injury, Obs: VIOTR
# [20] = tested on: ivyleaf morningglory (Ipomoea hederacea, IPOHE); experiment: Greenhouse postemergence trial, % visual injury
# spring barley (HORVS) = experiment: Greenhouse postemergence trial, crop phytotoxicity (% visual injury)
# winter wheat (TRZAW) [21] = experiment: as above; details: for % visual injury, Obs: TRZAW
# maize (ZEAMX) = experiment: as above; details: for % visual injury, Obs: ZEAMX
# common rice (ORYSA) = experiment: as above
# [22] = tested on: ivyleaved speedwell (Veronica hederifolia, VERHE); experiment: Greenhouse postemergence trial, % visual injury; type: in vivo; details: aminocyclopyrachlor 100 g ae/ha
# [23] = tested on: grain sorghum (Sorghum vulgare, SORVU); experiment: Greenhouse postemergence trial, % visual injury; type: in vivo
# [24] = tested on: common chickweed (Stellaria media, STEME); experiment: Greenhouse postemergence trial, % visual injury; type: in vivo; details: aminopyralid-TIPA 5 g ae/ha
# [25] = tested on: kochia (KCHSC, Kochia scoparia); experiment: Patio postemergence trial, % visual injury; type: in vivo; details: 20-22 d
# Description: (§1) The plants were grown for 7-36 days (d) on a fenced, open-air patio. Nutrients and water were added on a regular basis.
# (§2) Temperatures and photoperiods were dependent on the natural weather conditions during the trials. Weather conditions during trials were conducive for plant growth and development.
# [26] = tested on: pigweed (AMARE, Amaranthus retroflexus); experiment: Patio postemergence trial, % visual injury; type: in vivo; details: 20-22 d
# Description: as §1, §2
# winter wheat (TRZAW) [27] = experiment: Patio postemergence trial, crop phytotoxicity (% visual injury); type: in vivo, Triticum aestivum; details: 20-22 d
# Description: as §1, §2
# [28] = tested on: CIRAR = Cirsium arvense (Canadian thistle); experiment: Small plot field trial (Canada), % visual injury; type: in vivo; details: 35 g ae/ha alone, 46-64 DAA
# Description: (§3) Trials were established as randomized complete blocks with 3-4 replicates. Individual plots were 2-3 meters (m) wide and 8-10 m long. Applications were made with backpack or tractor-mounted sprayers delivering a spray volume output of 100 liters per hectare (L/ha) using pressurized carbon dioxide (CO2) as a propellant. Compound 7 was combined with 2,4 D EHE (660 g ae/L EC formulation) and applied to spring wheat (TRZAS), and the phytotoxicity of the herbicidal compositions was measured. In addition, the efficacy of the herbicidal composition on Canadian thistle ([…], Cirsium arvense), […] scoparia), mallow ([…] pusilla), wild buckwheat (POLCO, Polygonum convolvulus), and lady's thumb (POLPE, Polygonum persicaria) was evaluated.
# [29] = tested on: MALPU = Malva pusilla (mallow); experiment: Small plot field trial (Canada), % visual injury; type: in vivo; details: 35 g ae/ha alone, 26-33 DAA
# Description: as §3
# [30] = tested on: kochia (KCHSC, Kochia scoparia); experiment: Small plot field trial (Canada), % visual injury; type: in vivo; details: 35 g ae/ha alone, 46-64 DAA
# Description: as §3
# [31] = tested on: lady's thumb (POLPE, Polygonum persicaria); experiment: Small plot field trial (Canada), % visual injury; type: in vivo; details: 35 g ae/ha alone, 14-16 DAA
# Description: as §3
# [32] = tested on: wild buckwheat (POLCO, Polygonum convolvulus); experiment: Small plot field trial (Canada), % visual injury; type: in vivo; details: 35 g ae/ha alone, 15 DAA
# Description: as §3
# spring wheat (TRZAS) = experiment: Small plot field trial (Canada), crop phytotoxicity (% visual injury); type: in vivo, Triticum aestivum; details: 35 g ae/ha alone
# Text: Small plot field trials were established in Canada to evaluate efficacy and crop safety of Compound 7 with 2,4-D EHE. Trials were established as randomized complete blocks with 3-4 replicates. Individual plots were 2-3 meters (m) wide and 8-10 m long. Applications were made with backpack or tractor-mounted sprayers delivering a spray volume output of 100 liters per hectare (L/ha) using pressurized carbon dioxide (CO2) as a propellant. Compound 7 was combined with 2,4 D EHE (660 g ae/L EC formulation) and applied to spring wheat (TRZAS), and the phytotoxicity of the herbicidal compositions was measured. In addition, the efficacy of the herbicidal composition on Canadian thistle ([…], Cirsium arvense), kochia (KCHSC, Kochia scoparia), mallow (MALPU, Marva pusilla), wild buckwheat (POLCO, Polygonum convolvulus), and lady's thumb (POLPE, Polygonum persicaria) was evaluated.
# winter wheat (TRZAW) [33] = details: Triticum aestivum (winter wheat), in vivo
# [34] = read-out: % visual injury (Obs)
smiles,measurement,setting,value
"CCCCCCC(C)OC(=O)COc1nc(F)c(Cl)c(N)c1Cl (stereo not shown) [Fluroxypyr-MHE, fluroxypyr-meptyl, reference compound]","% visual injury, Obs","[1]; AMARE, 70 g ae/ha",70%
same,% visual injury (Obs),[1]; fluroxypyr-MHE 70 g ae/ha,50%
same,% visual injury (Obs),[2]; fluroxypyr-MHE 70 g ae/ha,95%
same,pest or weed control at 70 g/ha,[3],10%
same,% visual injury (Obs),[4]; fluroxypyr-MHE 100 g ae/ha,65%
same,pest or weed control at 70 g/ha,"[5]; Abutilon theophrasti, post-emergence, read-out: % visual injury, Obs",40%
same,% visual injury (Obs),[5]; fluroxypyr-MHE 100 g ae/ha,70%
same,"% visual injury, Obs",[6],0%
same,% visual injury (Obs),[7]; fluroxypyr-MHE 100 g ae/ha,80%
same,% visual injury (Obs),[8]; fluroxypyr-MHE 70 g ae/ha,75%
same,% visual injury (Obs),[9],95%
same,% visual injury (Obs),[10],85%
same,"% visual injury, Obs",[11],0%
same,"% visual injury, Obs",[12]; 70 g ae/ha,0%
same,pest or weed control at 70 g/ha,[13],33%
same,% visual injury (Obs),[14],0%
same,% visual injury (Obs),[15]; fluroxypyr-MHE 70 g ae/ha,93%
same,pest or weed control at 100 g/ha,"[16]; read-out: % visual injury (Obs), fluroxypyr-MHE 100 g ae/ha",60%
same,pest or weed control at 70 g/ha,"[16]; read-out: % visual injury Obs, 70 g ae/ha alone, 20-22 d",10%
same,plant injury at 100 g/ha,[17]; [34],85%
same,plant injury at 70 g/ha,"[17]; read-out: % visual injury, Obs",15%
same,pest or weed control at 70 g/ha,[18],18%
same,"% visual injury, Obs",[19]; 70 g ae/ha,80%
same,% visual injury (Obs),[19]; fluroxypyr-MHE 100 g ae/ha,80%
same,pest or weed control at 70 g/ha,"[20]; Ipomoea, post-emergence, read-out: % visual injury, Obs",80%
same,% visual injury Obs,"spring barley (HORVS); crop, 70 g ae/ha alone, 20-22 d",20%
same,% visual injury (Obs),spring barley (HORVS); fluroxypyr-MHE 70 g ae/ha,0%
same,"% visual injury, Obs",winter wheat (TRZAW) [21]; 70 g ae/ha,0%
same,% visual injury (Obs),winter wheat (TRZAW) [21]; fluroxypyr-MHE 70 g ae/ha,0%
same,% visual injury (Obs),winter wheat (TRZAW) [21]; fluroxypyr-MHE 100 g ae/ha,0%
same,"% visual injury, Obs",maize (ZEAMX); 70 g ae/ha,0%
same,% visual injury (Obs),maize (ZEAMX); fluroxypyr-MHE 100 g ae/ha,0%
same,% visual injury (Obs),common rice (ORYSA); fluroxypyr-MHE 100 g ae/ha,0%
"Nc1nc(C2CC2)nc(C(=O)O)c1Cl [aminocyclopyrachlor, reference compound]",% visual injury (Obs),[22],75%
"Nc1cc(Cl)nc(C(=O)O)c1Cl [aminopyralid-TIPA, aminopyralid-triisopropanolammonium, reference compound]",% visual injury (Obs),[7]; aminopyralid-TIPA 5 g ae/ha,60%
same,% visual injury (Obs),[8]; aminopyralid-TIPA 5 g ae/ha,65%
same,"% visual injury, Obs","[23]; SORVU, 5 g ae/ha",5%
same,% visual injury (Obs),[23]; aminopyralid-TIPA 5 g ae/ha,0%
same,% visual injury (Obs),[24],60%
same,"% visual injury, Obs",[12]; 5 g ae/ha,0%
same,pest or weed control at 5 g/ha,[13],5%
same,% visual injury (Obs),[15]; aminopyralid-TIPA 5 g ae/ha,10%
same,pest or weed control at 5 g/ha,"[16]; read-out: % visual injury (Obs), aminopyralid-TIPA 5 g ae/ha",60%
same,plant injury at 5 g/ha,[17]; [34],10%
same,pest or weed control at 5 g/ha,[18],18%
same,"% visual injury, Obs",[19]; 5 g ae/ha,48%
same,% visual injury (Obs),[19]; aminopyralid-TIPA 5 g ae/ha,10%
same,% visual injury (Obs),[20]; aminopyralid-TIPA 5 g ae/ha,60%
same,"% visual injury, Obs",winter wheat (TRZAW) [21]; 5 g ae/ha,0%
same,% visual injury (Obs),winter wheat (TRZAW) [21]; aminopyralid-TIPA 5 g ae/ha,0%
same,"% visual injury, Obs",maize (ZEAMX); 5 g ae/ha,3%
same,% visual injury (Obs),maize (ZEAMX); aminopyralid-TIPA 5 g ae/ha,0%
same,% visual injury (Obs),common rice (ORYSA); aminopyralid-TIPA 5 g ae/ha,0%
Nc1c(F)c(-c2ccc3cc[nH]c3c2F)nc(C(=O)[O-])c1Cl.[K+] [compound 7],pest or weed control at 8.75 g/ha,"[1]; Amaranthus retroflexus, post-emergence, read-out: % visual injury Obs",70%
same,% visual injury Obs,"[2]; 8.75 g ae/ha alone, 20-22 d",58%
same,pest or weed control at 5 g/ha,[3],80%
same,pest or weed control at 8.75 g/ha,[3],60%
same,pest or weed control at 10 g/ha,[3],100%
same,% visual injury Obs,"[4]; 8.75 g ae/ha alone, 20-22 d",55%
same,% visual injury Obs,[25]; 8.75 g ae/ha alone,5%
same,% visual injury Obs,[25]; 17.5 g ae/ha alone,0%
same,% visual injury Obs,[26]; 8.75 g ae/ha alone,30%
same,% visual injury Obs,[26]; 17.5 g ae/ha alone,40%
same,% visual injury Obs,winter wheat (TRZAW) [27]; 8.75 g ae/ha alone,5%
same,% visual injury Obs,winter wheat (TRZAW) [27]; 17.5 g ae/ha alone,0%
same,% visual injury Obs,[28],20%
same,% visual injury Obs,[29],15%
same,% visual injury Obs,[30],62%
same,% visual injury Obs,[31],20%
same,% visual injury Obs,[32],50%
same,% visual injury Obs,spring wheat (TRZAS); 6-8 DAA,3%
same,% visual injury Obs,spring wheat (TRZAS); 14-16 DAA,3%
same,% visual injury Obs,winter wheat (TRZAW) [33],0%
same,pest or weed control at 5 g/ha,"[16]; read-out: % visual injury Obs, 5 g ae/ha alone, 20-22 d",50%
same,pest or weed control at 8.75 g/ha,"[16]; read-out: % visual injury Obs, 8.75 g ae/ha alone, 20-22 d",25%
same,pest or weed control at 10 g/ha,"[16]; read-out: % visual injury Obs, 10 g ae/ha alone, 20-22 d",65%
